Test results reported in ChEMBL document CHEMBL3045903, “Computational evaluation and experimental verification of antibacterial activity of some -lactams: advantages and limitations” (2013).

Assays:
Assay type in all cases: functional
Staphylococcus = test: Antibacterial activity against Staphylococcus citrus by disc diffusion method
Escherichia coli = test: Antibacterial activity against Escherichia coli by disk diffusion method
Klebsiella pneumoniae = test: Antibacterial activity against Klebsiella pneumoniae by disk diffusion method
Bacillus subtilis = test: Antibacterial activity against Bacillus subtilis by disk diffusion method

| SMILES | inhibition zone (IZ) (Staphylococcus) [mm] | inhibition zone (IZ) (Escherichia coli) [mm] | inhibition zone (IZ) (Klebsiella pneumoniae) [mm] | inhibition zone (IZ) (Bacillus subtilis) [mm] |
| --- | --- | --- | --- | --- |
| CCOC(=O)C1C(c2ccccc2)CC2C(NC(=O)COc3ccccc3)C(=O)N21 (stereo not drawn) | <6 | <6 | <6 | <6 |
| CCOC(=O)C(Cc1ccccc1)N1C(=O)C(NC(=O)COc2ccccc2)C1/C=C/c1ccccc1 (stereo not drawn) | 9 | <6 | <6 | >12 |
| CCOC(=O)C(Cc1ccccc1)N1C(=O)C(NN2C(=O)c3ccccc3C2=O)C1/C=C/c1ccccc1 (stereo not drawn) | 9 | <6 | <6 | >12 |
| CCOC(=O)C1C(c2ccccc2)CC2C(NN3C(=O)c4ccccc4C3=O)C(=O)N21 (stereo not drawn) | <6 | <6 | <6 | <6 |
| CCOC(=O)C(Cc1ccccc1)N1C(=O)C(NC(=O)c2ccccc2)C1/C=C/c1ccccc1 (stereo not drawn) | <6 | <6 | <6 | <6 |
| CCOC(=O)C(Cc1ccccc1)N1C(=O)C(NC(=O)Cc2ccccc2)C1/C=C/c1ccccc1 (stereo not drawn) | 9 | <6 | <6 | >12 |
| CCOC(=O)C1C(c2ccccc2)CC2C(NC(=O)Cc3ccccc3)C(=O)N21 (stereo not drawn) | <6 | <6 | <6 | <6 |
| CCOC(=O)C(Cc1ccccc1)N1C(=O)C(NN2C(=O)c3ccccc3C2=O)C1CO (stereo not drawn) | <6 | <6 | <6 | <6 |
| CCOC(=O)C(Cc1ccccc1)N1C(=O)C(NC(=O)/C=C/c2ccccc2)C1/C=C/c1ccccc1 (stereo not drawn) | <6 | <6 | <6 | <6 |
| CCOC(=O)C1C(c2ccccc2)CC2C(NC(=O)/C=C/c3ccccc3)C(=O)N21 (stereo not drawn) | <6 | <6 | <6 | <6 |
| CCOC(=O)C1C(c2ccccc2)CC2C(NC(=O)c3ccccc3)C(=O)N21 (stereo not drawn) | <6 | <6 | <6 | <6 |
| CCOC(=O)C(Cc1ccccc1)N1C(=O)C(NN2C(=O)c3ccccc3C2=O)C1C=O (stereo not drawn) | <6 | <6 | <6 | <6 |
